Experimental data from ChEMBL document CHEMBL1135856, “Identification of unique VLA-4 antagonists from a combinatorial library” (Bioorg Med Chem Lett, 2002).

The compounds below were run against Integrin alpha-4/beta-1 (Homo sapiens, UniProt P05556+P13612) (assay: Inhibition of [125I]VCAM-Ig binding to Alpha-4 beta-1 (VLA-4) of Jurkat cells).
Assay type: cell-based

Sequence of Integrin alpha-4/beta-1 (P05556 whole entry): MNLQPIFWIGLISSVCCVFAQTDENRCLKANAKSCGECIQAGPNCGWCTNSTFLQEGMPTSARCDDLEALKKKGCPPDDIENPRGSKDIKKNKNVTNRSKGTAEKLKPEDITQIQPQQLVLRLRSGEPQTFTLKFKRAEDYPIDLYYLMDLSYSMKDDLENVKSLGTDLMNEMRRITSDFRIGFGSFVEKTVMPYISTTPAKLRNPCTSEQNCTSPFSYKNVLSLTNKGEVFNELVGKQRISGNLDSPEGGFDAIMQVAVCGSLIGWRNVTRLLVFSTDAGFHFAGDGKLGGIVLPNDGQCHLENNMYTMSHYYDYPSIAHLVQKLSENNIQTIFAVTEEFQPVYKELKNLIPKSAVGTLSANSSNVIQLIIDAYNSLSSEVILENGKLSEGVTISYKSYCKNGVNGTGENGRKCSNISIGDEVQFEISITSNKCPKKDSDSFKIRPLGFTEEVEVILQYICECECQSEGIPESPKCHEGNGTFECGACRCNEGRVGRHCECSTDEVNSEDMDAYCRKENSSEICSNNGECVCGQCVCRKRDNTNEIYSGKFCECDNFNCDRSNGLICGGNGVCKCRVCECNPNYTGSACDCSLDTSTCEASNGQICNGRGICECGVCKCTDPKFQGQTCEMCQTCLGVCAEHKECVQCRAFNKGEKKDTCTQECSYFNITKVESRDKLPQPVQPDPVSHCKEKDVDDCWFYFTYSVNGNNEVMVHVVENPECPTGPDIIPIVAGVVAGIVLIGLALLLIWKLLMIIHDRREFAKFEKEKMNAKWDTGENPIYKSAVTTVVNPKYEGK
Sequence of Integrin alpha-4/beta-1 (P13612 whole entry): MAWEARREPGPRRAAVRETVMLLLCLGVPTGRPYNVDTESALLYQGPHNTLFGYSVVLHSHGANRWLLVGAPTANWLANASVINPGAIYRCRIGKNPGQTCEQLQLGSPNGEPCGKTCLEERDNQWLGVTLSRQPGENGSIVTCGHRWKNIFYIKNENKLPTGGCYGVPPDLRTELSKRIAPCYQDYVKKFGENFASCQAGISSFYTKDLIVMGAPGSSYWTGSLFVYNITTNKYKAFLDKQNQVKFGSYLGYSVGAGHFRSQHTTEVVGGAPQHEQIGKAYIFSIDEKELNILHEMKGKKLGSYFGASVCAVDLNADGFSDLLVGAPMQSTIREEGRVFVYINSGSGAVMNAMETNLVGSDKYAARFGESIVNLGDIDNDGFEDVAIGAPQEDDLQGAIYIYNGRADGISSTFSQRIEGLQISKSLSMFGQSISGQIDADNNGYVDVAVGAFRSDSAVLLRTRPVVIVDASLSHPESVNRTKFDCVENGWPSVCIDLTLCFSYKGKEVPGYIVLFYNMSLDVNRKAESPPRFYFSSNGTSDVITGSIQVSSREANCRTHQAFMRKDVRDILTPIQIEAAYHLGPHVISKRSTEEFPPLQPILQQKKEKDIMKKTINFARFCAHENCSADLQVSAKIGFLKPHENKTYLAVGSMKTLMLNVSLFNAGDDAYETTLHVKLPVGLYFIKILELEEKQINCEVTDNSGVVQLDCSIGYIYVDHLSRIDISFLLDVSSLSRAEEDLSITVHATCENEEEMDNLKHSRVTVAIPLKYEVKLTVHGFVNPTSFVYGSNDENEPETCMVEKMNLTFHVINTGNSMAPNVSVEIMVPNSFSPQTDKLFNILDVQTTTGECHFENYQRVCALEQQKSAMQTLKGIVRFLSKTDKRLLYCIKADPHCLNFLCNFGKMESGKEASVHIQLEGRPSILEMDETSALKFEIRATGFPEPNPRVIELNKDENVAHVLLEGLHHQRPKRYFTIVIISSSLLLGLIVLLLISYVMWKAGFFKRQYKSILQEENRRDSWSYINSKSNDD

Structure (SMILES)	IC50 [nM]
Cc1ccccc1NC(=O)Nc1ccc(CC(=O)N(CC(=O)NC(CC(=O)O)c2ccccc2)C2CCCCC2)cc1 (centres undefined)	3.2
O=C(N[C@@H](Cc1ccc(-c2ccccc2)cc1)C(=O)O)c1ccc(CNS(=O)(=O)c2cc(Cl)cc(Cl)c2)cc1	3.6
Cc1ccccc1NC(=O)Nc1ccc(CC(=O)C2CCC(C(=O)N[C@@H](Cc3ccccc3)C(=O)O)(c3ccccc3)CC2)cc1 (some centres undefined)	8.1
CCCC[C@H](NC(=O)[C@@H]1Cc2ccccc2CN1S(=O)(=O)c1ccc(OC)c(OC)c1)C(=O)O	0.53
